Source: patent US20260083702A1, “INHALATION FORMULATION FOR TREATING IPF DISEASE AND PREPARATION METHOD THEREFOR” (SUZHOU INHAL PHARMA CO., LTD., priority 2023, published 2026)

Experiments:
[1] = tested on: mice with pulmonary fibrosis; test: HE staining of lungs in bleomycin pulmonary fibrosis model (Experimental Example 2); format: in vivo, C57BL6J mice; conditions: FIG. 3; for alveolar structure (HE staining): compared with the model group
Excerpt: (§1) Establishment of pulmonary fibrosis model: 6-8 week old C57BL6J mice were selected and acclimatized for one week. In the model group, apremilast inhalation (Example 2) treatment group, roflumilast inhalation (Example 5) treatment group, crisaborole inhalation (Example 3) treatment group, apremilast oral administration treatment group (Comparative Example 1), and nintedanib oral administration treatment group (Comparative Example 2, nintedanib is a commonly used drug for treating IPF in the prior art), the animals were treated with bleomycin solution (3 mg/kg/50 μl) via intratracheal instillation on the first day, and in the control group, the animals were treated with an equal volume of physiological saline. Treatment started one week later and lasted for two weeks, and a total of three weeks was required. The bleomycin solution was prepared by mixing bleomycin dry powder with sterile PBS to reach the required concentration (non-surgical method of intratracheal injection of bleomycin into mouse lungs: the mice were anesthetized with isoflurane and suspended on a surgical stent at a 70° angle. Bleomycin was administered via intratracheal instillation using a 200 μl pipette).
(§2) HE staining and MASSON staining: Mouse lung tissue was fixed in 4% paraformaldehyde for 24 h, rinsed with running water overnight, dehydrated with alcohol conventionally, embedded in paraffin, cut into 5 μm sections, and stained with HE and MASSON respectively. After clearing with xylene, the sections were mounted with neutral resin. The pathological changes in the lungs were observed and photographed under an optical microscope.

[2] = tested on: mice with pulmonary fibrosis; test: MASSON staining of lungs in bleomycin pulmonary fibrosis model (Experimental Example 2); format: in vivo, C57BL6J mice; conditions: FIG. 2; for collagen fibers / collagen deposition (MASSON staining): compared with the model group; for pathological changes in the lungs (MASSON staining): inhalation groups compared with model group, oral groups compared with inhalation groups
Excerpt: as §1, §2

[3] = tested on: mice with pulmonary fibrosis; test: Weight measurement in bleomycin pulmonary fibrosis model (Experimental Example 2); format: in vivo, C57BL6J mice; conditions: compared with the model group; bleomycin 3 mg/kg intratracheal, treatment from week 1 for two weeks; FIG. 1
Excerpt: as §1, with “The bleomycin solution was prepared by mixing bleomycin dry powder with sterile PBS to reach the required concentration (non-surgical method of intratracheal injection of bleomycin into mouse lungs: the mice were anesthetized with isoflurane and suspended on a surgical stent at a 70° angle. Bleomycin was administered via intratracheal instillation using a 200 μl pipette).” left out
(§3) Weight measurement: The weight of mice was measured and recorded at a fixed time on the morning each week, and the weight changes of mice in each group at different times were observed.
Statistical analysis: The results were statistically analyzed using Graphpad Prism 9.0 software for the experimental data of each group. […] The measurement data were expressed as mean #standard deviation (mean±SD). […]

[4] = tested on: mice with pulmonary fibrosis; test: MASSON staining of lungs in bleomycin pulmonary fibrosis model (Experimental Example 4); format: in vivo, C57/BL6J mice; conditions: FIG. 7; for collagen fibers / collagen deposition (MASSON staining): compared with the model group; for lung damage / pathological changes (MASSON staining): inhalation groups compared with model group, oral groups compared with inhalation groups
Excerpt: (§4) Establishment of pulmonary fibrosis model: 6-8 week old C57/BL6J mice were selected and acclimatized for one week. The mice were divided into blank control group, model group, apremilast inhalation (Example 2) treatment group, roflumilast inhalation (Example 5) treatment group, crisaborole inhalation (Example 3) treatment group, ibudilast inhalation (Example 10) treatment group, difamilast inhalation (Example 9) treatment group, ibudilast oral administration (Comparative Example 3) treatment group, difamilast oral administration (Comparative Example 4) treatment group, and nintedanib oral administration (Comparative Example 2, nintedanib is a commonly used drug for treating IPF in the prior art) treatment group, with n=8 in each group. On the first day, the mice in the model group and the treatment groups were administered bleomycin solution (3 mg/kg/50 μl) via tracheal instillation, while the control group was treated with an equal volume of physiological saline. Treatment began in each treatment group one week later and lasted for two weeks, and a total of three weeks was required. The bleomycin solution was prepared by mixing bleomycin dry powder with sterile PBS to reach the required concentration (non-surgical method of intratracheal injection of bleomycin into mouse lungs: the mice were anesthetized by inhaling isoflurane, and suspended on a surgical stent at a 70° angle, and bleomycin was administered via intratracheal instillation using a 200 μl pipette).
as §2, with “as usual,” for “conventionally,”, “paraffin, then serially” for “paraffin,”, “sections (5 μm),” for “5 μm sections,”, “sections” for “pathological changes in the lungs”

[5] = tested on: mice with pulmonary fibrosis; test: Detection of MDA and HYP content in the lungs, bleomycin pulmonary fibrosis model (Experimental Example 4); format: in vivo, C57/BL6J mice; conditions: compared with model group; FIG. 9
Excerpt: as §4
(§5) Detection of malondialdehyde (MDA) and hydroxyproline (HYP) content in the lungs: An appropriate amount of lung tissue was taken from the mice in each group, homogenized (the ground tissue was centrifuged at 3000 rpm for 10 min and the supernatant was taken for later use), and the MDA and HYP content in the lungs was detected according to the kit instructions (MDA stands for malondialdehyde, a product of lipid peroxidation that reflects oxidative damage; HYP (hydroxyproline) level reflects the degree of fibrotic deposition in the lungs).
(§6) Statistical analysis: The results were statistically analyzed using Graphpad Prism 9.0 software for the experimental data of each group. All experimental data underwent normality test. The measurement data were expressed as mean±standard deviation (mean±SD). One-way ANOVA was used to compare the means of multiple groups of samples. P<0.05 is considered statistically significant.

[6] = tested on: mice with pulmonary fibrosis; test: Detection of MDA and HYP content in the lungs, bleomycin pulmonary fibrosis model (Experimental Example 2); format: in vivo, C57BL6J mice; conditions: compared with model group; FIG. 4
Excerpt: as §1
as §5, with “instructions. MDA” for “instructions (MDA”, “damage, while” for “damage;”, “stands for hydroxyproline level, which” for “(hydroxyproline) level”, “level” for “degree”, “pulmonary fibrosis.” for “fibrotic deposition in the lungs).”
as §6, with “mean #standard” for “mean±standard”

[7] = tested on: mice with pulmonary fibrosis; test: Weight measurement in bleomycin pulmonary fibrosis model (Experimental Example 4); format: in vivo, C57/BL6J mice; conditions: FIGS. 5 and 6
Excerpt: as §4, §3, §6

[8] = tested on: mice with pulmonary fibrosis; test: HE staining of lungs in bleomycin pulmonary fibrosis model (Experimental Example 4); format: in vivo, C57/BL6J mice; conditions: FIG. 8; for alveolar structure (HE staining): compared with the model group
Excerpt: as §4
as §2, with “as usual,” for “conventionally,”, “paraffin, then serially” for “paraffin,”, “sections (5 μm),” for “5 μm sections,”, “sections” for “pathological changes in the lungs”

[9] = 14th day compared to the 7th day after model establishment

Row | SMILES | inflammatory cell infiltration (HE staining) [1] | alveolar structure (HE staining) [1] | collagen fibers / collagen deposition (MASSON staining) [2] | pathological changes in the lungs (MASSON staining) [2] | weight recovery [3] | collagen fibers / collagen deposition (MASSON staining) [4] | lung damage / pathological changes (MASSON staining) [4] | HYP content in the lungs (collagen deposition) [5] | MDA content in the lungs (oxidative stress level) [5] | HYP content in the lungs (collagen deposition) [6] | MDA content in the lungs (oxidative stress level) [6] | weight recovery [7, 9] | weight recovery ([7]; compared with the model group) | inflammatory cell infiltration (HE staining) [8] | alveolar structure (HE staining) [8]
1 | COC(=O)c1ccc2c(c1)NC(=O)/C2=C(\Nc1ccc(N(C)C(=O)CN2CCN(C)CC2)cc1)c1ccccc1 [Comparative Example 2, nintedanib] | a few inflammatory cell infiltrations | improved alveolar structure | reduced collagen deposition | slightly thickened alveolar interstitium and a few visible collagen fibers | no significant difference in weight recovery | reduced collagen deposition | slightly thickened alveolar interstitium and a few visible collagen fibers | slight downward trend, but this did not have statistical significance | slight downward trend, but this did not have statistical significance | slight tendency to alleviate MDA and HYP in the lungs, but the results were not statistically significant | slight tendency to alleviate MDA and HYP in the lungs, but the results were not statistically significant | did not show significant body recovery | no significant difference in weight recovery | a few inflammatory cell infiltrations | improved the alveolar structure
2 | CCOc1ccccc1C(=O)NCc1coc(-c2ccc(OC(F)F)c(OC(C)C)c2)n1 [Comparative Example 4, difamilast] |  |  |  |  |  | reduced collagen deposition | slightly thickened alveolar interstitium and a few visible collagen fibers | slight downward trend, but this did not have statistical significance | slight downward trend, but this did not have statistical significance |  |  | significant weight recovery | significant weight recovery | a few inflammatory cell infiltrations | improved the alveolar structure
3 | CCOc1cc([C@@H](CS(C)(=O)=O)N2C(=O)c3cccc(NC(C)=O)c3C2=O)ccc1OC [Comparative Example 1, apremilast] | a few inflammatory cell infiltrations | improved alveolar structure | reduced collagen deposition | slightly thickened alveolar interstitium and a few visible collagen fibers | significant weight recovery | reduced collagen deposition | slightly thickened alveolar interstitium and a few visible collagen fibers | slight downward trend, but this did not have statistical significance | slight downward trend, but this did not have statistical significance | slight tendency to alleviate MDA and HYP in the lungs, but the results were not statistically significant | slight tendency to alleviate MDA and HYP in the lungs, but the results were not statistically significant | significant weight recovery | significant weight recovery | a few inflammatory cell infiltrations | improved the alveolar structure
